Target: T1, glucosylceramide synthase (Homo sapiens, UniProt Q16739)
T1 construct: made in house; host or cells: Expi293F cells (transient expression, pcDNA3.3-TOPO vector); microsome fraction used as enzyme source
T1 sequence (Q16739 1-394): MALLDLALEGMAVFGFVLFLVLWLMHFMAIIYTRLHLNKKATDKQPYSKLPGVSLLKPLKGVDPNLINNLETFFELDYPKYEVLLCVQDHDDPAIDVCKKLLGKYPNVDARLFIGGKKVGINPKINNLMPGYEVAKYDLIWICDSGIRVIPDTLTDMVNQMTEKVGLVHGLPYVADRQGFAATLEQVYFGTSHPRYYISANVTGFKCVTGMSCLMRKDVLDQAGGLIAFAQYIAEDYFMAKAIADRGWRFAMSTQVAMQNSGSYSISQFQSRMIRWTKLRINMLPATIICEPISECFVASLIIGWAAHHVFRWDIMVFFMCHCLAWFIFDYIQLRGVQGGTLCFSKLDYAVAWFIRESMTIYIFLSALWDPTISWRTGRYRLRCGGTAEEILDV
Experiment: Glucosylceramide synthase (GCS) enzyme assay, microsome fraction, C8 glucosylceramide quantified by Rapidfire MS/MS
Type: biochemical
Conditions: test compound 10 μM; 1.7 μM UDP-glucose, 3 μM C8 ceramide; room temperature 60 min
In short: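 Test compound, 10 μM final, was run against human GCS from transfected Expi293F microsome fractions, using substrate solution of 6 μM C8 ceramide (in DOPC liposomes) plus 3.4 μM UDP-glucose, pH 7.5 Tris buffer, 60 min, room temperature. Product C8 glucosylceramide measured by Rapidfire MS/MS against an internal standard, % inhibition referenced to no-enzyme and DMSO wells.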

GCS enzyme inhibitory rate at 10 μM (%) (% of control)	SMILES
96%	O=C1c2ccnc(-c3ccc(F)cc3OCC(F)(F)F)c2CN1c1ccc(C(O)C(F)(F)F)cc1 (single isomer, unassigned) [Example 286, (R or S)-4-[4-fluoro-2-(2,2,2-trifluoroethoxy)phenyl]-2-[4-(2,2,2-trifluoro-1-hydroxyethyl)phenyl]-2,3-dihydro-1H-pyrrolo [3,4-c]pyridin-1-one]
95%	O=C1c2ccnc(-c3ccc(F)cc3OCC(F)(F)F)c2CN1c1ccc(C2(O)CCOC2)c(F)c1 (racemic) [Example 238, rac-2-[3-fluoro-4-(3-hydroxyoxolan-3-yl)phenyl]-4-[4-fluoro-2-(2,2,2-trifluoroethoxy)phenyl]-2,3-dihydro-1H-pyrrolo[3,4-c]pyridin-1-one]

Same assay, conditions: test compound 10 μM; 1.7 μM UDP-glucose, 3 μM C8 ceramide; room temperature 60 min; read-out: GCS enzyme inhibitory rate at 10 μM (%) (% of control)

SMILES	inhibition at 10 µM
O=C1c2ccnc(-c3ccc(F)cc3OC(F)F)c2CN1c1ccc(OC(F)F)cn1 [Example 53, 4-[2-(difluoromethoxy)-4-fluorophenyl]-2-[5-(difluoromethoxy)pyridin-2-yl]-2,3-dihydro-1H-pyrrolo[3,4-c]pyridin-1-one]	67%
O=C1c2ccnc(-c3ccccc3OCC(F)(F)F)c2CN1c1ccc(C2(O)CC(OCc3ccccc3)C2)cc1 (stereo not drawn) [Example 227, (cis or trans)-2-{4-[3-(benzyloxy)-1-hydroxycyclobutyl]phenyl}-4-[2-(2,2,2-trifluoroethoxy)phenyl]-2,3-dihydro-1H-pyrrolo[3,4-c]pyridin-1-one]	100%
O=C1c2cncc(-c3ccccc3OCC(F)(F)F)c2CN1c1ccc(F)cc1 [Example 87, 2-(4-fluorophenyl)-7-[2-(2,2,2-trifluoroethoxy)phenyl]-1,2-dihydro-3H-pyrrolo[3,4-c]pyridin-3-one]	86%
O=C1c2cnn(-c3ccc(F)cc3OCC(F)(F)F)c2CN1c1ccc(F)cc1 [Example 79, 5-(4-fluorophenyl)-1-[4-fluoro-2-(2,2,2-trifluoroethoxy)phenyl]-5,6-dihydropyrrolo[3,4-c]pyrazol-4(1H)-one]	75%
O=C1c2ccnc(-c3ccc(F)cc3OCC(F)(F)F)c2CN1c1cnn(CC2CC2)c1 [Example 153, 2-[1-(cyclopropylmethyl)-1H-pyrazol-4-yl]-4-[4-fluoro-2-(2,2,2-trifluoroethoxy)phenyl]-2,3-dihydro-1H-pyrrolo[3,4-c]pyridin-1-one]	98%
O=C(c1ccc(-c2nccc3c2CN(c2ccc(F)cc2)C3=O)c(OC(F)F)c1)N1CCC1 [Example 78, 4-[4-(azetidine-1-carbonyl)-2-(difluoromethoxy)phenyl]-2-(4-fluorophenyl)-2,3-dihydro-1H-pyrrolo[3,4-c]pyridin-1-one]	79%
COc1cnccc1-c1nccc2c1CN(c1ccc(F)cc1)C2 [Example 170, 2-(4-fluorophenyl)-4-(3-methoxypyridin-4-yl)-2,3-dihydro-1H-pyrrolo[3,4-c]pyridine]	88%
O=C1c2ccnc(-c3ccc(F)cc3OCC(F)(F)F)c2CN1c1ccc(OC2COC2)cc1 [Example 106, 4-[4-fluoro-2-(2,2,2-trifluoroethoxy)phenyl]-2-{4-[(oxetan-3-yl)oxy]phenyl}-2,3-dihydro-1H-pyrrolo[3,4-c]pyridin-1-one]	94%
CC(C)Cn1cc(N2Cc3c(ccnc3-c3ccc(F)cc3OCC(F)(F)F)C2=O)cn1 [Example 96, 4-[4-fluoro-2-(2,2,2-trifluoroethoxy)phenyl]-2-[1-(2-methylpropyl)-1H-pyrazol-4-yl]-2,3-dihydro-1H-pyrrolo[3,4-c]pyridin-1-one]	99%
O=C1c2ccnc(-c3ccccc3OCC(F)(F)F)c2CN1c1cnn(CC2(F)COC2)c1 [Example 247, 2-{1-[(3-fluorooxetan-3-yl)methyl]-1H-pyrazol-4-yl}-4-[2-(2,2,2-trifluoroethoxy)phenyl]-2,3-dihydro-1H-pyrrolo[3,4-c]pyridin-1-one]	97%
CC(C)(O)COc1ccc(N2Cc3c(ccnc3-c3ccccc3OCC(F)(F)F)C2=O)cn1 [Example 233, 2-[6-(2-hydroxy-2-methylpropoxy)pyridin-3-yl]-4-[2-(2,2,2-trifluoroethoxy)phenyl]-2,3-dihydro-1H-pyrrolo[3,4-c]pyridin-1-one]	96%
O=C1c2ccnc(-c3ccccc3OC(F)F)c2CN1c1ccc(OC(F)(F)F)cn1 [Example 62, 4-[2-(difluoromethoxy)phenyl]-2-[5-(trifluoromethoxy)pyridin-2-yl]-2,3-dihydro-1H-pyrrolo[3,4-c]pyridin-1-one]	95%
O=C1c2ccnc(-c3ccc(F)cc3OCC(F)(F)F)c2CN1c1ccc(C2(O)CCOC2)c(F)c1 (racemic) [Example 223, rac-2-[3-fluoro-4-(3-hydroxyoxolan-3-yl)phenyl]-4-[4-fluoro-2-(2,2,2-trifluoroethoxy)phenyl]-2,3-dihydro-1H-pyrrolo[3,4-c]pyridin-1-one]	96%
O=C1c2ccnc(-c3ccc(F)cc3OCC(F)(F)F)c2CN1c1ncc(OC(F)F)cn1 [Example 99, 2-[5-(difluoromethoxy)pyrimidin-2-yl]-4-[4-fluoro-2-(2,2,2-trifluoroethoxy)phenyl]-2,3-dihydro-1H-pyrrolo[3,4-c]pyridin-1-one]	92%
O=C1c2ccnc(-c3ccc(F)cc3OCC3(F)COC3)c2CN1c1ccc(OC(F)F)cc1 [Example 127, 2-[4-(difluoromethoxy)phenyl]-4-{4-fluoro-2-[(3-fluorooxetan-3-yl)methoxy]phenyl}-2,3-dihydro-1H-pyrrolo[3,4-c]pyridin-1-one]	100%
O=C1c2ccnc(-c3ccncc3OCC(F)(F)F)c2CN1c1ccc(OC(F)F)cn1 [Example 91, 2-[5-(difluoromethoxy)pyridin-2-yl]-4-[3-(2,2,2-trifluoroethoxy)pyridin-4-yl]-2,3-dihydro-1H-pyrrolo[3,4-c]pyridin-1-one]	99%

Now from value to compound:

inhibition at 10 µM	SMILES
97%	CC(C)(O)c1ccc(N2Cc3c(ccnc3-c3ccc(F)cc3OCC(F)F)C2=O)cc1F [Example 274, 4-[2-(2,2-difluoroethoxy)-4-fluorophenyl]-2-[3-fluoro-4-(2-hydroxypropan-2-yl)phenyl]-2,3-dihydro-1H-pyrrolo[3,4-c]pyridin-1-one]
93%	O=C(C1CC1)N1CC(O)(c2ccc(N3Cc4c(ccnc4-c4ccccc4OCC(F)(F)F)C3=O)cc2)C1 [Example 261, 2-{4-[1-(cyclopropanecarbonyl)-3-hydroxyazetidin-3-yl]phenyl}-4-[2-(2,2,2-trifluoroethoxy)phenyl]-2,3-dihydro-1H-pyrrolo[3,4-c]pyridin-1-one]
91%	CS(=O)(=O)c1ccc(N2Cc3c(ccnc3-c3ccccc3OCC(F)(F)F)C2=O)nc1 [Example 268, 2-[5-(methanesulfonyl)pyridin-2-yl]-4-[2-(2,2,2-trifluoroethoxy)phenyl]-2,3-dihydro-1H-pyrrolo[3,4-c]pyridin-1-one]
100%	Cc1cc2c(c(-c3ccccc3OCC(F)(F)F)n1)CN(c1ccc(C3(O)CCOCC3)cc1)C2=O [Example 348, 2-[4-(4-hydroxyoxan-4-yl)phenyl]-6-methyl-4-[2-(2,2,2-trifluoroethoxy)phenyl]-2,3-dihydro-1H-pyrrolo[3,4-c] pyridin-1-one]
88%	O=C1c2ccnc(-c3ccc(F)cc3OCC(F)(F)F)c2CN1c1ccc(C(O)C(F)(F)F)c(F)c1 (racemic) [Example 293, rac-4-[4-fluoro-2-(2,2,2-trifluoroethoxy)phenyl]-2-[3-fluoro-4-(2,2,2-trifluoro-1-hydroxyethyl)phenyl]-2,3-dihydro-1H-pyrrolo [3,4-c]pyridin-1-one]
76%	O=C1c2ccnc(-c3ccccc3OCC(F)(F)F)c2CN1c1ccc(O)cc1 [Example 347, 2-(4-hydroxyphenyl)-4-[2-(2,2,2-trifluoroethoxy)phenyl]-2,3-dihydro-1H-pyrrolo[3,4-c]pyridin-1-one]
99%	CC(O)c1ccc(N2Cc3c(ccnc3-c3ccc(F)cc3OCC(F)(F)F)C2=O)cc1 (racemic) [Example 282, rac-4-[4-fluoro-2-(2,2,2-trifluoroethoxy)phenyl]-2-[4-(1-hydroxyethyl)phenyl]-2,3-dihydro-1H-pyrrolo[3,4-c] pyridin-1-one]
98%	CC(C)(O)COc1cnc(N2Cc3c(ccnc3-c3ccccc3OCC(F)(F)F)C2=O)cn1 [Example 298, 2-[5-(2-hydroxy-2-methylpropoxy)pyrazin-2-yl]-4-[2-(2,2,2-trifluoroethoxy)phenyl]-2,3-dihydro-1H-pyrrolo[3,4-c]pyridin-1-one]
100%	CC(C)(O)c1cc2c(c(-c3ccccc3OCC(F)(F)F)n1)CN(c1ccc(OCC(F)(F)F)cc1)C2=O [Example 343, 6-(2-hydroxypropan-2-yl)-4-[2-(2,2,2-trifluoroethoxy)phenyl]-2-[4-(2,2,2-trifluoroethoxy)phenyl]-2,3-dihydro-1H-pyrrolo[3,4-c]pyridin-1-one]
